One block for each compound: values may come before it.
Experiments:
[1] = molecular target: T1, NAD-dependent protein deacetylase sirtuin-1 (Homo sapiens, UniProt Q96EB6)
T1 sequence (Q96EB6 whole entry): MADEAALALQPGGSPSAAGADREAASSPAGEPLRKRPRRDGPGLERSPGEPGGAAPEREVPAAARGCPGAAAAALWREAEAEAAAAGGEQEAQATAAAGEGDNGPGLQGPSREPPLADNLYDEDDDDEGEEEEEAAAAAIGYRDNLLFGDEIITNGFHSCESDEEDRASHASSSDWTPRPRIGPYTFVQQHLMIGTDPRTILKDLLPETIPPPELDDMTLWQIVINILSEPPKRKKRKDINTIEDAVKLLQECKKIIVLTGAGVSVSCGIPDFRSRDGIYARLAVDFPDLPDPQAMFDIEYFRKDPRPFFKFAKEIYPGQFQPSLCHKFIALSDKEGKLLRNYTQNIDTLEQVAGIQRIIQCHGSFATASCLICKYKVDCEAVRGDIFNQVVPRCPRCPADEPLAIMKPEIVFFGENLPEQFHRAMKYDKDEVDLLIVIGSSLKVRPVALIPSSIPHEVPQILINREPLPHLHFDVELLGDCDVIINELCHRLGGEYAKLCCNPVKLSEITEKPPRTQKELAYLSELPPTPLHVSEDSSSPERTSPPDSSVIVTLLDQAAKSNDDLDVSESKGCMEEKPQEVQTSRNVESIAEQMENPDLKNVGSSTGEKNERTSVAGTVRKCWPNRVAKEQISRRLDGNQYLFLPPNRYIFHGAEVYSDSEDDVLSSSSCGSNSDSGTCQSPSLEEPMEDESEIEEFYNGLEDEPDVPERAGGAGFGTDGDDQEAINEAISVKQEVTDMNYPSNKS
Description: Inhibitory activity against recombinant human SIRT1 expressed in Escherichia coli by fluorimetric assay

[2] = molecular target: T2, NAD-dependent protein deacetylase sirtuin-3, mitochondrial (Homo sapiens, UniProt Q9NTG7); experiment: Inhibitory activity against recombinant human SIRT3 expressed in Escherichia coli by fluorimetric assay
T2 sequence (Q9NTG7 whole entry): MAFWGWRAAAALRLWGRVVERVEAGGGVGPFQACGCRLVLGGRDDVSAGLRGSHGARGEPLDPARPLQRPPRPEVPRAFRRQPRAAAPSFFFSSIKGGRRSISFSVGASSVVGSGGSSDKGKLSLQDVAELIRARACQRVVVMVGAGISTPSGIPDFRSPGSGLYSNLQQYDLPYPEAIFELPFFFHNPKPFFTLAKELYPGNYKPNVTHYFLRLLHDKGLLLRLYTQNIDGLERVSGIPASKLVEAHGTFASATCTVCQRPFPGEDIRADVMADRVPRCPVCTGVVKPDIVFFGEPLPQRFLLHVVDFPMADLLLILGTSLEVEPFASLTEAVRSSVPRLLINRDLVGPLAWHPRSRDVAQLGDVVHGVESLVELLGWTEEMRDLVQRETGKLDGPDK

[3] = molecular target: Histone deacetylase; experiment: Inhibitory activity against human HDAC in HeLa cell extract by fluorimetric assay; format: cell-free
[4] = molecular target: CYP3A4 (Homo sapiens, UniProt P08684); experiment: Percent inhibitory activity against human CYP3A4 at 1uM; format: ADME
[5] = molecular target: CYP2D6 (Homo sapiens, UniProt P10635); experiment: Percent inhibitory activity against human CYP2D6 at 1uM; format: ADME
[6] = molecular target: CYP2C9 (Homo sapiens, UniProt P11712); experiment: Percent inhibitory activity against human CYP2C9 at 1uM; format: ADME
[7] = molecular target: CYP2C19 (Homo sapiens, UniProt P33261); experiment: Percent inhibitory activity against human CYP2C19 at 1uM; format: ADME
[8] = molecular target: T3, CYP1A2 (Homo sapiens, UniProt P05177); experiment: Percent inhibitory activity against human CYP1A2 at 1uM; format: ADME
T3 sequence (P05177 whole entry): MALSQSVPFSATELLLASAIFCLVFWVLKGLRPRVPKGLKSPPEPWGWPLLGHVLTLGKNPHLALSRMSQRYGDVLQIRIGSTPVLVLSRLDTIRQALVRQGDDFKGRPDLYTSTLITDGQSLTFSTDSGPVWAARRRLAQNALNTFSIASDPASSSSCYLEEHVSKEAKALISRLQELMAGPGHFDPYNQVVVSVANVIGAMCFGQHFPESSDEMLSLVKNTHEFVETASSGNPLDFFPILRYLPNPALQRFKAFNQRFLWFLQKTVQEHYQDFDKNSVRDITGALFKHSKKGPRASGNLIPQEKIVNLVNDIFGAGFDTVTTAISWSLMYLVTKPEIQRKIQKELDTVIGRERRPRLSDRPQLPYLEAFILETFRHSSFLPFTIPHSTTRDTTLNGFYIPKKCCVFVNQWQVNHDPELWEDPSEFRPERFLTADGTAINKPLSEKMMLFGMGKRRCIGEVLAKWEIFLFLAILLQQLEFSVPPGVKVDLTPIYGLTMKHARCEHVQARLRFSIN

[9] = molecular target: hERG (KCNH2) potassium channel (Homo sapiens, UniProt Q12809); experiment: Percentage inhibitory activity against hERG potassium channel transfected in CHO cells at 10uM; settings: CHO cells transfected with hERG
[10] = molecular target: T4, NAD-dependent protein deacetylase sirtuin-2 (Homo sapiens, UniProt Q8IXJ6)
T4 sequence (Q8IXJ6 whole entry): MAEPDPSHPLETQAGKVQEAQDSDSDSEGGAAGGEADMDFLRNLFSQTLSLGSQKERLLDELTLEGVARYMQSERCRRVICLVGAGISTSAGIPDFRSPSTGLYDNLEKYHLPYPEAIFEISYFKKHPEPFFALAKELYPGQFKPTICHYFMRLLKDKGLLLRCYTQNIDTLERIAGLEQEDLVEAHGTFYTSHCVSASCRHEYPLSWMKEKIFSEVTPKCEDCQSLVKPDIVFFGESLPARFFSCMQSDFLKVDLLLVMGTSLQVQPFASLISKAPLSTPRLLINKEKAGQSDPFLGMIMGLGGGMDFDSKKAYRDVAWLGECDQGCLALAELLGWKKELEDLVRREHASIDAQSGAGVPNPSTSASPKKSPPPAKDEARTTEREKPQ
Description: Inhibitory activity against recombinant human SIRT2 expressed in Escherichia coli by fluorimetric assay

[11] = molecular target: T1, NAD-dependent protein deacetylase sirtuin-1; remark: listed apart in the source
Description: Inhibitory activity against human SIRT1 by radiochemical Nicotinamide release assay

[12] = Half life in rat liver microsomes; format: ADME, Microsome
[13] = tested on: Liver microsomes; experiment: Stability in rat liver microsomes at 10 uM; format: ADME, Microsome
[14] = Serum half life in mice administered with 10 mg/kg, po; format: ADME, organism-based; set-up: dose 10 mg/kg, route oral; settings: C57bl/6J, mouse

Chain of CYP3A4 (P08684 whole entry): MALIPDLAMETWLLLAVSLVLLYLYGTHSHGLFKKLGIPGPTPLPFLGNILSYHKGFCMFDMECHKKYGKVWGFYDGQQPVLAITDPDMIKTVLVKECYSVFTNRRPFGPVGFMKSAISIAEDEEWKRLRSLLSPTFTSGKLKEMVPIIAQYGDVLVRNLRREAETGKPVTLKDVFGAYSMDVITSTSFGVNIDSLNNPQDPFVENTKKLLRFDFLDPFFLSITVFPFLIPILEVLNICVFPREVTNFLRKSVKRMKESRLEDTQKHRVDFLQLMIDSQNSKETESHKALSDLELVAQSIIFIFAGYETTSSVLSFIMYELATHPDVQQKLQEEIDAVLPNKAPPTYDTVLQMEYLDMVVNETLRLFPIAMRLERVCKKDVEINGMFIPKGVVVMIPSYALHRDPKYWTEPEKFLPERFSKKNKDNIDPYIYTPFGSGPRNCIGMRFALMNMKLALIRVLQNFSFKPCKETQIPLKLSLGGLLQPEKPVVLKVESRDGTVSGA
Chain of CYP2C19 (P33261 whole entry): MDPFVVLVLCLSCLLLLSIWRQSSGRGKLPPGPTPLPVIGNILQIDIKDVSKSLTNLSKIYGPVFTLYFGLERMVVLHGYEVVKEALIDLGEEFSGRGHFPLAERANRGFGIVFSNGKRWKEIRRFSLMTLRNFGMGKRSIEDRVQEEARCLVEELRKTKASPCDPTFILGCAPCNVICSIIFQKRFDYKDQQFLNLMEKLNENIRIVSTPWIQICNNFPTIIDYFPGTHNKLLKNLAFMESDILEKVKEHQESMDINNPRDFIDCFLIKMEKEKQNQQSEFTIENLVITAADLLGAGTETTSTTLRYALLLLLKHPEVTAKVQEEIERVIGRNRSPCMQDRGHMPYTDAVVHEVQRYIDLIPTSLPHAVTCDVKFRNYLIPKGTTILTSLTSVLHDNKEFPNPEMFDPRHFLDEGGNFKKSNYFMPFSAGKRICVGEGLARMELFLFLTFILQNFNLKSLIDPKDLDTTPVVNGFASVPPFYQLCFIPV
Chain of hERG (KCNH2) potassium channel (Q12809 whole entry): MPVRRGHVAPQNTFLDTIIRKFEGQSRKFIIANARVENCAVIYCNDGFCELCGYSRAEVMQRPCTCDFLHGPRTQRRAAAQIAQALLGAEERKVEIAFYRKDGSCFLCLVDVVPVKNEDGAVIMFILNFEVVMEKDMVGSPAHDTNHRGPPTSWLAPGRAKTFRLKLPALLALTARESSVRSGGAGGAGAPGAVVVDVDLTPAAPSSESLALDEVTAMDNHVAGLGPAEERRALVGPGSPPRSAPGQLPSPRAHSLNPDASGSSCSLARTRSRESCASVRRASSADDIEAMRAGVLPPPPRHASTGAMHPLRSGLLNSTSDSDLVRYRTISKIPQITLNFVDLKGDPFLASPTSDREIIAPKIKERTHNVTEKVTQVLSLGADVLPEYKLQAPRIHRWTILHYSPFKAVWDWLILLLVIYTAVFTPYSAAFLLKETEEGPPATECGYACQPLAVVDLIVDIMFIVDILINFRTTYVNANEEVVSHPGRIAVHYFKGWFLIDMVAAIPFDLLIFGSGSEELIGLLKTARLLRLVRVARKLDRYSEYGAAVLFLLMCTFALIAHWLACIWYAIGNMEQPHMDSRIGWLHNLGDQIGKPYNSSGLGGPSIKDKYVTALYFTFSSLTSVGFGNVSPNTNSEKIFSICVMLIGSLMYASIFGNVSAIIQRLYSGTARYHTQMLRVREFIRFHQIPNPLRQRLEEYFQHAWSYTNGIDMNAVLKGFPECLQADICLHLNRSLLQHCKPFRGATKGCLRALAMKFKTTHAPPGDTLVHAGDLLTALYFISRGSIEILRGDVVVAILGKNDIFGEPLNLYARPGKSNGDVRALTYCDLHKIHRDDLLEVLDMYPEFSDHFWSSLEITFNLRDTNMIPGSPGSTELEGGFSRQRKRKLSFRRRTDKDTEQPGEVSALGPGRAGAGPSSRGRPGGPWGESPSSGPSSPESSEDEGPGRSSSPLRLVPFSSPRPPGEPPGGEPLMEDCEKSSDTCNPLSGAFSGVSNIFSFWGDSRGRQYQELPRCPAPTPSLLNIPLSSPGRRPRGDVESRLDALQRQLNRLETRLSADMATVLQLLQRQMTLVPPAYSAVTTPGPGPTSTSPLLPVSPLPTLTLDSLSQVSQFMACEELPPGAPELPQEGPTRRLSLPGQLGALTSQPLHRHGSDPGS
Chain of CYP2D6 (P10635 whole entry): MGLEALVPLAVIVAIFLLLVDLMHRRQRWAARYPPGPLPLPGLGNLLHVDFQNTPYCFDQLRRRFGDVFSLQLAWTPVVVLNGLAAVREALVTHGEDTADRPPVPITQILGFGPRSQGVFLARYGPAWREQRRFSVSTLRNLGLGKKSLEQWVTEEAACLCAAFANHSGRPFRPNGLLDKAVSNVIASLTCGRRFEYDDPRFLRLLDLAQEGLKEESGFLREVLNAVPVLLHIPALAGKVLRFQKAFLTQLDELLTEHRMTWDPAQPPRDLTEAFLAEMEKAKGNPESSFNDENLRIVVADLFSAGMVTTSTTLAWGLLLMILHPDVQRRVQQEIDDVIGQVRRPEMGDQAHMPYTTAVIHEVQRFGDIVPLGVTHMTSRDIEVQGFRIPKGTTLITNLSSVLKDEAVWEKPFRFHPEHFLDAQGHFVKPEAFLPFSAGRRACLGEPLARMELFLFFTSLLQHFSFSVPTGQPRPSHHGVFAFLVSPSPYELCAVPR
Chain of CYP2C9 (P11712 whole entry): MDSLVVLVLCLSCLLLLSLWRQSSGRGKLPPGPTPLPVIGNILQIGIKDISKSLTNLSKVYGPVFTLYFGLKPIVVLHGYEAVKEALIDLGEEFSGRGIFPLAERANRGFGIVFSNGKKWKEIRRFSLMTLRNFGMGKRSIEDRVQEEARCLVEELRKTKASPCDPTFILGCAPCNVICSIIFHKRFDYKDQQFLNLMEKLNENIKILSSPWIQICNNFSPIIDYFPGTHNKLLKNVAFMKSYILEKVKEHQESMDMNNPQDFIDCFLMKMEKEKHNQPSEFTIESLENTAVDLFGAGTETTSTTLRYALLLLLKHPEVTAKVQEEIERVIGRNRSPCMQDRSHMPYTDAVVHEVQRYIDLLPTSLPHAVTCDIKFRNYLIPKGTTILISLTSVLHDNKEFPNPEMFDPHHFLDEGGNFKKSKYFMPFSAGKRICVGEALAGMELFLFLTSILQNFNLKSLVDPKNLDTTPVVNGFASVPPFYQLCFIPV

Compound: Cc1ccc2c(c1)c1c(n2C)C(C(N)=O)CCC1 (configuration not stated)
IC50 [1]: > 100 µM

Compound: CCNC(=O)C1CCCc2c1[nH]c1ccc(Cl)cc21 (configuration not stated)
IC50 [1]: > 100 µM

Compound: CCN(CC)C(=O)C1CCCc2c1[nH]c1ccc(Cl)cc21 (configuration not stated)
IC50 [1]: > 100 µM

Compound: NC(=O)CNC(=O)C1CCCc2c1[nH]c1ccc(Cl)cc21 (configuration not stated)
IC50 [1]: > 100 µM

Compound: CCOC(=O)C1CCCc2c1[nH]c1ccc(Cl)cc21 (configuration not stated)
IC50 [1]: > 100 µM

Compound: NC(=O)C1CCCc2c1[nH]c1ccc(Cl)cc21 (configuration not stated)
IC50 [3]: > 100 µM | inhibition at 1 µM [4]: -26% | inhibition at 1 µM [5]: -5% | inhibition at 1 µM [6]: -5% | inhibition at 1 µM [7]: 6% | inhibition at 1 µM [8]: 11% | inhibition at 10 µM [9]: 0% | half-life [12]: > 1 h | Stability [13]: Stable | half-life [14]: 2.27 h

Compound: NC(=O)C1CCCc2c1[nH]c1ccccc21 (configuration not stated)
IC50 [2]: > 100 µM | IC50 [3]: > 100 µM | inhibition at 1 µM [4]: -22% | inhibition at 1 µM [5]: -4% | inhibition at 1 µM [6]: -8% | inhibition at 1 µM [7]: 5% | inhibition at 1 µM [8]: 4% | inhibition at 10 µM [9]: 0% | IC50 [10]: 24.8 µM

Compound: NC(=O)C1NCCc2c1[nH]c1ccc(Br)cc21 (configuration not stated)
IC50 [1]: > 100 µM

Compound: Cc1ccc2[nH]c3c(c2c1)CCCC3CN (configuration not stated)
IC50 [1]: > 100 µM

Compound: NC(=O)C1CCCCc2c1[nH]c1ccc(Cl)cc21 (configuration not stated)
IC50 [2]: > 100 µM | IC50 [3]: > 100 µM | inhibition at 1 µM [4]: -12% | inhibition at 1 µM [5]: 3% | inhibition at 1 µM [6]: 11% | inhibition at 1 µM [7]: 23% | inhibition at 1 µM [8]: 23% | half-life [12]: > 1 h | Stability [13]: Stable | half-life [14]: 1.57 h

Compound: O=C(O)C1CCCc2c1[nH]c1ccc(Cl)cc21 (configuration not stated)
IC50 [1]: > 100 µM

Further compounds by falling IC50 [1], results first:

IC50 [1]: 79.9 µM
Compound: CC(=O)N1CCc2c([nH]c3ccc(Cl)cc23)C1C(N)=O (configuration not stated)

IC50 [1]: 77.6 µM
Compound: O=C(NO)C1CCCc2c1[nH]c1ccc(Cl)cc21 (configuration not stated)

IC50 [1]: 34.5 µM
Compound: NC(=O)C1CCc2c([nH]c3ccc(Cl)cc23)C1 (configuration not stated)

IC50 [1]: 18 µM
Compound: NC(=O)C1NCCc2c1[nH]c1ccc(Cl)cc21 (configuration not stated)

IC50 [1]: 15 µM
Compound: NC(=O)C1CCCc2c1[nH]c1ccc(O)cc21 (configuration not stated)

IC50 [1]: 13 µM
Compound: Cc1ccc2[nH]c3c(c2c1)CCCC3(C)C(N)=O (configuration not stated)

IC50 [1]: 2.67 µM
Compound: NC(=O)C1CCc2c1[nH]c1ccccc21 (configuration not stated)

IC50 [1]: 2.44 µM
Compound: NC(=O)C1CCc2c([nH]c3ccc(Br)cc23)C1 (configuration not stated)

IC50 [1]: 0.409 µM
Compound: NC(=O)C1CCc2c1[nH]c1ccc(Cl)cc21 (configuration not stated)

IC50 [2]: > 100 µM | IC50 [3]: > 100 µM | inhibition at 1 µM [4]: -16% | inhibition at 1 µM [5]: -3% | inhibition at 1 µM [6]: -9% | inhibition at 1 µM [7]: 9% | inhibition at 1 µM [8]: 7% | IC50 [1]: 0.205 µM | IC50 [10]: 11.5 µM | IC50 [11]: 2.5 µM
Compound: Cc1ccc2[nH]c3c(c2c1)CCCC3C(N)=O (configuration not stated)
inhibition at 10 µM [9]: 0%
